# Several values for one entry are separate records, joined by “and”; a condition that tells them apart may be missing. Equal values may be shown once.
# What was measured:
# CK2α2(h) = CK2α2(h) (Homo sapiens, UniProt P19784); experiment: biochemical
# full-length PfCLK3 = details: PfCLK3 5 μg; triplicate wells
# Protocol: To a 384-well thermal shift plate, 5 μL protein thermal shift buffer (Thermo Fisher Scientific), 5 μg full length PfCLK3 (4.17 μL, 1.2 mg/mL), 8.13 μL thermal shift buffer (Thermo Fisher Scientific), 0.2 μL 10 mM compound or vehicle (DMSO), and 2.5 μL protein thermal shift dye (Thermo Fisher Scientific) were added in triplicate. […] 5 Qpcr (Thermo Fisher Scientific). Fluorescence was recorded as proteins unfolded. The Boltzmann distribution was calculated and Tm obtained using Protein Thermal Shift Software v1.4 (Thermo Fisher Scientific).
# CDK7/cyclinH/MAT1(h) = CDK7/cyclinH/MAT1(h) (Homo sapiens, UniProt P50613); experiment: biochemical
# PKA(h) = PKA(h) (Homo sapiens, UniProt P17612); experiment: biochemical
# Protocol: (§1) Compounds were evaluated using Eurofins Discovery’s KinaseProfiler Diversity Panel of 58 representative kinases. KinaseProfiler is a radiometric assay using [γ-^33P]-ATP to measure the phosphorylation of individual kinase substrates. A representative protocol for Abl is given below. Further details can be found by visiting the Eurofins Discovery Web site.
# (§2) The reaction is initiated by the addition of the Mg/ATP mix. After incubation for 40 min at room temperature, the reaction is stopped by the addition of phosphoric acid to a concentration of 0.5%.
# MLK1(h) = MLK1(h) (Homo sapiens, UniProt P80192); experiment: biochemical
# Protocol: as §1, §2
# PI3 Kinase (p120g)(h) = PI3 Kinase (p120g)(h) (Homo sapiens, UniProt P48736); experiment: biochemical
# Protocol: as §1, §2
# MEK1(h) = MEK1(h) (Homo sapiens, UniProt Q02750); experiment: biochemical
# Protocol: as §1, §2
# p70S6K(h) = p70S6K(h) (Homo sapiens, UniProt P23443); experiment: biochemical
# Protocol: as §1, §2
# Rse(h) = Rse(h) (Homo sapiens, UniProt Q06418); experiment: biochemical
# Protocol: as §1, §2
# IRAK4(h) = IRAK4(h) (Homo sapiens, UniProt Q9NWZ3); experiment: biochemical
# Protocol: as §1, §2
# EGFR(h) = EGFR(h) (Homo sapiens, UniProt P00533); experiment: biochemical
# Protocol: as §1, §2
# MSK2(h) = MSK2(h) (Homo sapiens, UniProt O75676); experiment: biochemical
# Protocol: as §1, §2
# NEK2(h) = NEK2(h) (Homo sapiens, UniProt P51955); experiment: biochemical
# Protocol: as §1, §2
# ROCK-I(h) = ROCK-I(h) (Homo sapiens, UniProt Q13464); experiment: biochemical
# Protocol: as §1, §2
# EphA5(h) = EphA5(h) (Homo sapiens, UniProt P54756); experiment: biochemical
# Protocol: as §1, §2
# TAK1(h) = TAK1(h) (Homo sapiens, UniProt O43318); experiment: biochemical
# Protocol: as §1, §2
# Lyn(h) = Lyn(h) (Homo sapiens, UniProt P07948); experiment: biochemical
# Protocol: as §1, §2
# mTOR(h) = mTOR(h) (Homo sapiens, UniProt P42345); experiment: biochemical
# Protocol: as §1, §2
# PAK2(h) = PAK2(h) (Homo sapiens, UniProt Q13177); experiment: biochemical
# Protocol: as §1, §2
# PRAK(h) = PRAK(h) (Homo sapiens, UniProt Q8IW41); experiment: biochemical
# Protocol: as §1, §2
# Mnk2(h) = Mnk2(h) (Homo sapiens, UniProt Q9HBH9); experiment: biochemical
# Protocol: as §1, §2
# JAK2(h) = JAK2(h) (Homo sapiens, UniProt O60674); experiment: biochemical
# Protocol: as §1, §2
# LOK(h) = LOK(h) (Homo sapiens, UniProt O94804); experiment: biochemical
# Protocol: as §1, §2
# Fyn(h) = Fyn(h) (Homo sapiens, UniProt P06241); experiment: biochemical
# Protocol: as §1, §2
# PKBα(h) = PKBα(h) (Homo sapiens, UniProt P31749); experiment: biochemical
# Protocol: as §1, §2
# Pim-1(h) = Pim-1(h) (Homo sapiens, UniProt P11309); experiment: biochemical
# Protocol: as §1, §2
# SAPK2a(h) = SAPK2a(h) (Homo sapiens, UniProt Q16539); experiment: biochemical
# Protocol: as §1, §2
# SRPK1(h) = SRPK1(h) (Homo sapiens, UniProt Q96SB4); experiment: biochemical
# Protocol: as §1, §2
# MAPKAP-K2(h) = MAPKAP-K2(h) (Homo sapiens, UniProt P49137); experiment: biochemical
# Protocol: as §1, §2
# Plk3(h) = Plk3(h) (Homo sapiens, UniProt Q9H4B4); experiment: biochemical
# Protocol: as §1, §2
# MST1(h) = MST1(h) (Homo sapiens, UniProt Q13043); experiment: biochemical
# Protocol: as §1, §2
# PKCθ(h) = PKCθ(h) (Homo sapiens, UniProt Q04759); experiment: biochemical
# Protocol: as §1, §2
# eEF-2K(h) = eEF-2K(h) (Homo sapiens, UniProt O00418); experiment: biochemical
# Protocol: as §1, §2
# Rsk1(h) = Rsk1(h) (Homo sapiens, UniProt Q15418); experiment: biochemical
# Protocol: as §1, §2
# IGF-1R(h) = IGF-1R(h) (Homo sapiens, UniProt P08069); experiment: biochemical
# Protocol: as §1, §2
# DRAK1(h) = DRAK1(h) (Homo sapiens, UniProt Q9UEE5); experiment: biochemical
# ROCK-I(h), sequence (Q13464 whole entry): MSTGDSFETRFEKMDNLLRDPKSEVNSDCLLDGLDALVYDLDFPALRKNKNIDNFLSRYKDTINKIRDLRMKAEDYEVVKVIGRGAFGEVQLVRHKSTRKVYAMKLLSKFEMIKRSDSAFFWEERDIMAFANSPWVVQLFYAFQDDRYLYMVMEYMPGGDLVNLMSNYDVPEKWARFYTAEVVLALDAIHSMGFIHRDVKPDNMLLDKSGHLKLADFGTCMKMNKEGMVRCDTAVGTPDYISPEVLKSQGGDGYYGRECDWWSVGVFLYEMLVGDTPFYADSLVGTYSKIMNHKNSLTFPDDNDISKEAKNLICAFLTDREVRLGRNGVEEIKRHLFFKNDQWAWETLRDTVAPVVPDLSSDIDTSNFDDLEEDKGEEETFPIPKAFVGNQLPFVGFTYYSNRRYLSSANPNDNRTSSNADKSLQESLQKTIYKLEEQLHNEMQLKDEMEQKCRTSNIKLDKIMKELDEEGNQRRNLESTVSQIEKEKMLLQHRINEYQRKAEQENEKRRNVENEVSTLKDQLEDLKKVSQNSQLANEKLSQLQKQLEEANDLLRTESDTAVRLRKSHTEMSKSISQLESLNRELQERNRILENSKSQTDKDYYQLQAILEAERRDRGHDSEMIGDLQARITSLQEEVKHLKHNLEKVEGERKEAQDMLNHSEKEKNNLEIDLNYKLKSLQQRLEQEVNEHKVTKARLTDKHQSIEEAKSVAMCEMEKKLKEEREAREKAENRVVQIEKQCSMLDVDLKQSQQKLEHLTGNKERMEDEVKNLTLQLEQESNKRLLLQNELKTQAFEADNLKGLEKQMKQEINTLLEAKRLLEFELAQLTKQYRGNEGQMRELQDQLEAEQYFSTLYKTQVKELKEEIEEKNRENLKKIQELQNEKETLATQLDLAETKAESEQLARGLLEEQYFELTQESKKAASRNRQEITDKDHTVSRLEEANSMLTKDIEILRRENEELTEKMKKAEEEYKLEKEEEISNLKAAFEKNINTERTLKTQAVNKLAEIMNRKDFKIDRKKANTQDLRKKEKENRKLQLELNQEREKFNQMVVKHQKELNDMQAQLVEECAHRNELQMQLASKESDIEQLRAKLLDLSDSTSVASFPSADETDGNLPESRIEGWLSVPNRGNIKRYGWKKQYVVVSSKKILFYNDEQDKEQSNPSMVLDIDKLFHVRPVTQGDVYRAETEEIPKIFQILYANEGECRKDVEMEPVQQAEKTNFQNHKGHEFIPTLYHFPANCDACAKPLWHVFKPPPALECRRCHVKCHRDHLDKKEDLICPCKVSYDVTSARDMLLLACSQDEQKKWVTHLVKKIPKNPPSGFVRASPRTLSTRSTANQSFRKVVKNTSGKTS
# MLK1(h), sequence (P80192 whole entry): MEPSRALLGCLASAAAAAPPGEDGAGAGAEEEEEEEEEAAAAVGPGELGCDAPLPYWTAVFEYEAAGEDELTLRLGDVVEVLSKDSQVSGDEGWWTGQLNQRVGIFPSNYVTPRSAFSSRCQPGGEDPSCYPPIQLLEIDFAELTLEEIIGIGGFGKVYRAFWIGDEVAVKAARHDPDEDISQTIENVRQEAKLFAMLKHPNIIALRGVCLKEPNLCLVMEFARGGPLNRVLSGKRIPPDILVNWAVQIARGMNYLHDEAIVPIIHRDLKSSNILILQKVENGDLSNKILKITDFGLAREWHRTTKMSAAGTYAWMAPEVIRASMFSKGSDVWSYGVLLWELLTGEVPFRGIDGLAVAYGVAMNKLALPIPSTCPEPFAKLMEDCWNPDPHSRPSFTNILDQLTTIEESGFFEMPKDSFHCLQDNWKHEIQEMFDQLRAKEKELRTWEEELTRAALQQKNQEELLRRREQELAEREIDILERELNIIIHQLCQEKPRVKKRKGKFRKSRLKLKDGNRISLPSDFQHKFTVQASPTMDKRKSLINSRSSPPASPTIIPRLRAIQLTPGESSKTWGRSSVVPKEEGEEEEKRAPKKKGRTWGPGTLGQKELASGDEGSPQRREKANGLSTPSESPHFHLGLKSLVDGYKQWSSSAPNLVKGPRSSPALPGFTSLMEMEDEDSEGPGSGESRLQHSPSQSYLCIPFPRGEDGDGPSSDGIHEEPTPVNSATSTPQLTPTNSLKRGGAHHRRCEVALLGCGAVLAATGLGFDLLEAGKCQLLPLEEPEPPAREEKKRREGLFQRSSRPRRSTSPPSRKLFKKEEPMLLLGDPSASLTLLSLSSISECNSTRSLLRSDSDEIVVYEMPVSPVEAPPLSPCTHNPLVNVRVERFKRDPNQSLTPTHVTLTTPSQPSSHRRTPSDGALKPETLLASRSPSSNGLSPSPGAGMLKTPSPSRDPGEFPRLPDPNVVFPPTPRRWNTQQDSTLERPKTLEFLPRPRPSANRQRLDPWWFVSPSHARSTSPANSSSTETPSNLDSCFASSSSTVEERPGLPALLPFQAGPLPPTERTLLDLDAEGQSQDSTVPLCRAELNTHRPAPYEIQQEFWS
# Fyn(h), sequence (P06241 whole entry): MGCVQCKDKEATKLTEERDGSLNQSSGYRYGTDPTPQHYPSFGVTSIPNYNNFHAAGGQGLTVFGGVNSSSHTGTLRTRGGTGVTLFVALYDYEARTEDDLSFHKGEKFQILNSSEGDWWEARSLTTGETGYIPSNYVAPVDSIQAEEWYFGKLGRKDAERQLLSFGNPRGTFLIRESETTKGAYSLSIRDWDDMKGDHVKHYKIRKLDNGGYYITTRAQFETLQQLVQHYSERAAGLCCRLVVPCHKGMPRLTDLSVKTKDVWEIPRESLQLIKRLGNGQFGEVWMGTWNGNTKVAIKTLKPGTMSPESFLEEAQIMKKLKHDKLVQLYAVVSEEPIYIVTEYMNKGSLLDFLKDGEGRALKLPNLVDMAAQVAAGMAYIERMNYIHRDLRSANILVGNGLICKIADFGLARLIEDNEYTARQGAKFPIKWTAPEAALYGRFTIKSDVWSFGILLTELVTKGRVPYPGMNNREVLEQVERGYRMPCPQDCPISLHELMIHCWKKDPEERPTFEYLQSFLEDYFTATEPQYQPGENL
# IGF-1R(h), sequence (P08069 31-1367): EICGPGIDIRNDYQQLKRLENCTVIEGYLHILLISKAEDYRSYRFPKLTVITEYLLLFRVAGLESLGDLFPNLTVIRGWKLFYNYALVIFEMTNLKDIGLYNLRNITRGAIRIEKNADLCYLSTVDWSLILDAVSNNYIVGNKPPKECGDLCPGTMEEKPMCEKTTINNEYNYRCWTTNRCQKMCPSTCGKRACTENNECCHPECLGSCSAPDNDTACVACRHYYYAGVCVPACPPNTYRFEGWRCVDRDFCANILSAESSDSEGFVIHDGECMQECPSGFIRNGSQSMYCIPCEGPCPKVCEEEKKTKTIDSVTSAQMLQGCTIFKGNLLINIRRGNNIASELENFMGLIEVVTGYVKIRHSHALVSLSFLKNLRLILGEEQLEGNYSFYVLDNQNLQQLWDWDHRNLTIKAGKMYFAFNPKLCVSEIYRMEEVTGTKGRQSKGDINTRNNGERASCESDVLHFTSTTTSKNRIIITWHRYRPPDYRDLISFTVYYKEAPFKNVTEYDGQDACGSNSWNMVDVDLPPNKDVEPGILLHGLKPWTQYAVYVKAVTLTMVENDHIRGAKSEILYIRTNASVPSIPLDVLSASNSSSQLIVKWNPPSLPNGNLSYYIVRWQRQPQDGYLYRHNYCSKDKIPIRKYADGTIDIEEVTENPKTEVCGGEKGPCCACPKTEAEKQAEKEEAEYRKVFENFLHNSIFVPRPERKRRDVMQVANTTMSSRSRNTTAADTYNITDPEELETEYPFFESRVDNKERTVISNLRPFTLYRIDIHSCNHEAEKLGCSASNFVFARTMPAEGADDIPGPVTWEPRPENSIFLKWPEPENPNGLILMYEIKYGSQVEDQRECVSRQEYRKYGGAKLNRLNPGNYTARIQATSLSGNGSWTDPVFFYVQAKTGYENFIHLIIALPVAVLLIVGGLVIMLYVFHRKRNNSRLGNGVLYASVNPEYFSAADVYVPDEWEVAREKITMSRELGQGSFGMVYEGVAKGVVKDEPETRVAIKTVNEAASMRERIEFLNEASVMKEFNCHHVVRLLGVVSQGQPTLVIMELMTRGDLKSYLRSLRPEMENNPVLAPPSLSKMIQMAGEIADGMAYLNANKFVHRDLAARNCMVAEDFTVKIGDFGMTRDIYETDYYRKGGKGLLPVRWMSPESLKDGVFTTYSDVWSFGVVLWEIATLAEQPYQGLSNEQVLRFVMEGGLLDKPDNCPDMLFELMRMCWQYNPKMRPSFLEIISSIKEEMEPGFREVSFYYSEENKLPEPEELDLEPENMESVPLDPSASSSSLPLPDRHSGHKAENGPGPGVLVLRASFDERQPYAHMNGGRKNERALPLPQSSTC
# MEK1(h), sequence (Q02750 whole entry): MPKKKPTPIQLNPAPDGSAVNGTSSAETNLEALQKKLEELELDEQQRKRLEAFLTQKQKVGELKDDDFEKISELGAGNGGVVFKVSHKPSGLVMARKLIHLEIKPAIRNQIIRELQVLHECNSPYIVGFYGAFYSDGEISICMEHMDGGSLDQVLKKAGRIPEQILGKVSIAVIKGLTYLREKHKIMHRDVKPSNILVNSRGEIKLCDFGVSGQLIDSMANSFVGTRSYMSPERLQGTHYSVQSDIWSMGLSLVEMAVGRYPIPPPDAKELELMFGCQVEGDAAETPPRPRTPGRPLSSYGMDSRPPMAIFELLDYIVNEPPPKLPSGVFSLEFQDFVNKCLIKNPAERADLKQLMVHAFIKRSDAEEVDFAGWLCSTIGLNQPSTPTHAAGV
# TAK1(h), sequence (O43318 1-303 limits assumed): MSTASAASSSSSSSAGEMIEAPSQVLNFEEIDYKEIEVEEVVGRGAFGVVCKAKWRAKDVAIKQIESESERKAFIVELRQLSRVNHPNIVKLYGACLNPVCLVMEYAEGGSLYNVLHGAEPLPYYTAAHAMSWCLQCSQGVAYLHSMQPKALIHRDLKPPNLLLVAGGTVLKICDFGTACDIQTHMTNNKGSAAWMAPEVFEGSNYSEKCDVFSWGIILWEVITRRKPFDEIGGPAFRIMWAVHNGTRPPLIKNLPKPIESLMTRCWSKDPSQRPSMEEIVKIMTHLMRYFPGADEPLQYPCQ
smiles,measurement,setting,value
"CCN(CC)Cc1ccc(OC)c(-c2cc3c(-c4ccc(C(=O)O)c(C(C)C)c4)ccnc3[nH]2)c1 [Compound 1, TCMDC-135051]",remaining activity at 1 µM,CK2α2(h),39%
same,Tm B,full-length PfCLK3,66.66 and 66.67 and 66.65
same,remaining activity at 1 µM,CDK7/cyclinH/MAT1(h),102%
same,remaining activity at 1 µM,PKA(h),101%
same,remaining activity at 1 µM,MLK1(h),92%
same,remaining activity at 1 µM,PI3 Kinase (p120g)(h),96%
same,remaining activity at 1 µM,MEK1(h),100%
same,remaining activity at 1 µM,p70S6K(h),100%
same,remaining activity at 1 µM,Rse(h),109%
same,remaining activity at 1 µM,IRAK4(h),27%
same,remaining activity at 1 µM,EGFR(h),95%
same,remaining activity at 1 µM,MSK2(h),100%
same,remaining activity at 1 µM,NEK2(h),105%
same,remaining activity at 1 µM,ROCK-I(h),117%
same,remaining activity at 1 µM,EphA5(h),97%
same,remaining activity at 1 µM,TAK1(h),45%
same,remaining activity at 1 µM,Lyn(h),28%
same,remaining activity at 1 µM,mTOR(h),100%
same,remaining activity at 1 µM,PAK2(h),110%
same,remaining activity at 1 µM,PRAK(h),74%
same,remaining activity at 1 µM,Mnk2(h),38%
same,remaining activity at 1 µM,JAK2(h),20%
same,remaining activity at 1 µM,LOK(h),37%
same,remaining activity at 1 µM,Fyn(h),49%
same,remaining activity at 1 µM,PKBα(h),106%
same,remaining activity at 1 µM,Pim-1(h),101%
same,remaining activity at 1 µM,SAPK2a(h),105%
same,remaining activity at 1 µM,SRPK1(h),105%
same,remaining activity at 1 µM,MAPKAP-K2(h),94%
same,remaining activity at 1 µM,Plk3(h),100%
same,remaining activity at 1 µM,MST1(h),84%
same,remaining activity at 1 µM,PKCθ(h),108%
same,remaining activity at 1 µM,eEF-2K(h),100%
same,remaining activity at 1 µM,Rsk1(h),105%
same,remaining activity at 1 µM,IGF-1R(h),94%
same,remaining activity at 1 µM,DRAK1(h),83%

# From publication PMC11571108, “Targeting PfCLK3 with Covalent Inhibitors: A Novel Strategy for Malaria Treatment” (Journal of Medicinal Chemistry, 2024)
